Data: ChEMBL document CHEMBL1201862, “PubChem BioAssay data set” (2004)
The source made the active and inactive calls.

Tests used:
[1] = cytotoxicity in HMLE control line with eGFP shRNA, dose response, counter-screen for HMLE_sh_ECad selective toxicity project, cell-based, HMLE_sh_eGFP, luminescence (AID 463074); type: functional, Homo sapiens;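 also: HMLE human mammary epithelial cells expressing control shRNA against eGFP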
[2] = Luminescence Cell-Based Dose Retest to Confirm Inhibitors of Cancer Stem Cells. [Related pubchem assays (depositor defined):AID2717, AID2721]; type: functional; settings: Homo sapiens
[3] = cells; type: functional
[4] = Vero E6 cell cytotoxicity, dose response, cytotoxicity control for non-replicating M. tuberculosis project, secondary assay (AID 492998); type: functional, VeroE6; settings: Vero C1008
[5] = Counterscreen for AddAB inhibitors: absorbance-based bacterial cell-based high throughput dose response assay for inhibitors of bacterial viability. [Related pubchem assays (depositor defined):AID435030, AID449728, AID449731, AID488942, AID488955, AID488956]; type: functional
[6] = molecular target: T1, Exodeoxyribonuclease V (Escherichia coli (strain K12), UniProt P04993+P07648+P08394); assay: E. coli RecBCD inhibitors, dose response, counter-screen for AddAB inhibitor project, absorbance, V66 E. coli, mutant T4 phage (AID 492957); type: functional, cell-based, Escherichia coli str. K-12 substr. MG1655
T1 sequence (P04993 whole entry): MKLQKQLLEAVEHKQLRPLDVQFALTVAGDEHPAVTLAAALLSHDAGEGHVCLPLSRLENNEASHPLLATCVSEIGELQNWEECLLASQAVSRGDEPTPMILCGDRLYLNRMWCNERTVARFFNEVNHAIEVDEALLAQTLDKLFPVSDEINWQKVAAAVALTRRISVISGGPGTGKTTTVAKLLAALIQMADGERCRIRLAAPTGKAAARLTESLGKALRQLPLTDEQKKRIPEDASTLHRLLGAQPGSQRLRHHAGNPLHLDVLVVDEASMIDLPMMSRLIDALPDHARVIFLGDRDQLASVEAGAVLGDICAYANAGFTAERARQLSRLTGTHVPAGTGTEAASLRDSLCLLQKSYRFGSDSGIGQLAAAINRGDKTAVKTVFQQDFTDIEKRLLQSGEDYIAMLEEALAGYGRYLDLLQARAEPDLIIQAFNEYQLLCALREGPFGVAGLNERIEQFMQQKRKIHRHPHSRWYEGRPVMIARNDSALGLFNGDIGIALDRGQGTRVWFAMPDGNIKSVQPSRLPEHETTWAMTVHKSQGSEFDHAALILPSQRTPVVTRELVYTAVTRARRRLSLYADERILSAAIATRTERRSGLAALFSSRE
T1 sequence (P07648 whole entry): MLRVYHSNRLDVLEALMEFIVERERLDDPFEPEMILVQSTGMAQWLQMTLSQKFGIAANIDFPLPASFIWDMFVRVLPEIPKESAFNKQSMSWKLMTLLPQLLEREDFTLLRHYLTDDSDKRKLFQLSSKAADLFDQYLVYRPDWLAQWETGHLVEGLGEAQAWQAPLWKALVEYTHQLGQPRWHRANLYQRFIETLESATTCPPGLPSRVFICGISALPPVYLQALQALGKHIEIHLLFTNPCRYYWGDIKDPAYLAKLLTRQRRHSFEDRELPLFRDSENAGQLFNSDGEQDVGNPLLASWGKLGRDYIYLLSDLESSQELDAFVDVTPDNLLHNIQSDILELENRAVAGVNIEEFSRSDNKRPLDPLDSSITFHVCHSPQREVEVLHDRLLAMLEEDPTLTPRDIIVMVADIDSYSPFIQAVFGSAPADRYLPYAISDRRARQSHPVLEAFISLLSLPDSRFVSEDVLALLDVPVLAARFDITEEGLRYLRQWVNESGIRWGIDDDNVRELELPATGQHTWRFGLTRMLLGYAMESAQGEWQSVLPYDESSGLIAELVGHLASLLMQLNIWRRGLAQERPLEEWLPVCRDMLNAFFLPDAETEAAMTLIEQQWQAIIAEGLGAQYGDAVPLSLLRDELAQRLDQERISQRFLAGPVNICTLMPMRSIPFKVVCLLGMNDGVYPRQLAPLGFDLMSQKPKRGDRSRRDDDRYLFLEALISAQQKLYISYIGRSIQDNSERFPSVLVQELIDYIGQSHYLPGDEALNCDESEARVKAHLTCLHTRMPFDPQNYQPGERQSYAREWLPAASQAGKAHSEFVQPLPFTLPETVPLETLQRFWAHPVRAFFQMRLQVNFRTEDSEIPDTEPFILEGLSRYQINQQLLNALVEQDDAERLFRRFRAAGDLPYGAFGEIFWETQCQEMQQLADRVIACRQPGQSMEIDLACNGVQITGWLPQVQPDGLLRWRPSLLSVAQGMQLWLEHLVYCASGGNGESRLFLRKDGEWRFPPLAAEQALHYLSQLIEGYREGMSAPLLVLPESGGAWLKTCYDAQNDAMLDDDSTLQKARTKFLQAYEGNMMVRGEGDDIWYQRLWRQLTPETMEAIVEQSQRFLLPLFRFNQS
T1 sequence (P08394 whole entry): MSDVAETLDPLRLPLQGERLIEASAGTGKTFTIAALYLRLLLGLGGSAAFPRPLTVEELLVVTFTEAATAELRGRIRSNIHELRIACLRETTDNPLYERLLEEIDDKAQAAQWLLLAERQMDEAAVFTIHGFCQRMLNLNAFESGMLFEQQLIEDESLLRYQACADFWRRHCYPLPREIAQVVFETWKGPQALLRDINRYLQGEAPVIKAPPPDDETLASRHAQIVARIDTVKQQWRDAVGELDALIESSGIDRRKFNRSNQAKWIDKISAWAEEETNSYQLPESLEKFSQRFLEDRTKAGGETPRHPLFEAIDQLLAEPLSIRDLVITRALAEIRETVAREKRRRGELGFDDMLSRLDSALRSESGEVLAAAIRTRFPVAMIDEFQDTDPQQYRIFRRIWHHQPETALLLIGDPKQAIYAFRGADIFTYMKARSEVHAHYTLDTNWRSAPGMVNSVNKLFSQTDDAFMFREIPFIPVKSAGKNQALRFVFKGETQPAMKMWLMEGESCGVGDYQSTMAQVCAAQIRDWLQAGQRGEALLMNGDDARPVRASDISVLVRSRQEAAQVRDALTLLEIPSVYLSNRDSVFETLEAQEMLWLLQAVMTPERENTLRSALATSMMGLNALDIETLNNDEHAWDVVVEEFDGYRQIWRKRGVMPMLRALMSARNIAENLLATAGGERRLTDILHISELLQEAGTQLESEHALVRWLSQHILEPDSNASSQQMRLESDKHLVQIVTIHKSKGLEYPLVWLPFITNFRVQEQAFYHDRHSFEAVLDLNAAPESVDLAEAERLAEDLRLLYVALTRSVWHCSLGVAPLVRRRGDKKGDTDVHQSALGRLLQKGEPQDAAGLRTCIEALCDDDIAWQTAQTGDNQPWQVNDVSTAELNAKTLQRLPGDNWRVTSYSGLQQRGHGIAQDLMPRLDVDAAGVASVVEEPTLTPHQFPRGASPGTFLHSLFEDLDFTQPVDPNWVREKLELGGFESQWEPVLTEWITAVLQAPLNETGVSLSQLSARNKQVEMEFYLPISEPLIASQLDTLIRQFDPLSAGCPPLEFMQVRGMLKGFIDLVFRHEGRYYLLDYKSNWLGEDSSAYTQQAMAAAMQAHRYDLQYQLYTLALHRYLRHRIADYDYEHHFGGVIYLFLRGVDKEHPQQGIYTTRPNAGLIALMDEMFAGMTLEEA

[7] = THP-1 cell cytotoxicity, dose response, cytotoxicity control for non-replicating M. tuberculosis project (AID 489025); type: functional
[8] = cytotoxicity toward NIH3T3 fibroblasts, dose response, counter-screen, cell-based, ATP luminescence, mouse fibroblasts (AID 2010); type: functional;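 also: cells exposed to compound for about 90 hours before reading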
[9] = system: Streptococcus; assay: Group A Streptococcus viability loss, dose response, counter-screen for streptokinase expression inhibitor project, luminescence, BacTiterGlo (AID 1915); type: functional, organism-based;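 also: potency for reduction of bacterial viability or growth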
[10] = inhibitors of intracellular T. cruzi replication, confirmation, NIH3T3 host cells, beta-gal luminescence (AID 2044); type: functional, cell-based;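 also: intracellular parasites grown in NIH/3T3 mouse fibroblasts as host cells; luminescent beta-galactosidase reporter signal from transgenic T. cruzi replicating inside host cells; inhibitors lower the luminescence signal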
[11] = molecular target: Heat shock protein HSP 90-alpha (Homo sapiens, UniProt P07900); type: functional, organism-based
[12] = molecular target: T2, Streptokinase A (Streptococcus pyogenes serotype M1, UniProt P10520); assay: S. pyogenes streptokinase expression inhibitors, potency, dose response, plasminogen activation absorbance, OD405 (AID 1914); type: functional, Streptococcus pyogenes M1 GAS;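 also: secreted streptokinase activity via plasminogen activation per viability signal from cell pellet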
T2 sequence (P10520 whole entry): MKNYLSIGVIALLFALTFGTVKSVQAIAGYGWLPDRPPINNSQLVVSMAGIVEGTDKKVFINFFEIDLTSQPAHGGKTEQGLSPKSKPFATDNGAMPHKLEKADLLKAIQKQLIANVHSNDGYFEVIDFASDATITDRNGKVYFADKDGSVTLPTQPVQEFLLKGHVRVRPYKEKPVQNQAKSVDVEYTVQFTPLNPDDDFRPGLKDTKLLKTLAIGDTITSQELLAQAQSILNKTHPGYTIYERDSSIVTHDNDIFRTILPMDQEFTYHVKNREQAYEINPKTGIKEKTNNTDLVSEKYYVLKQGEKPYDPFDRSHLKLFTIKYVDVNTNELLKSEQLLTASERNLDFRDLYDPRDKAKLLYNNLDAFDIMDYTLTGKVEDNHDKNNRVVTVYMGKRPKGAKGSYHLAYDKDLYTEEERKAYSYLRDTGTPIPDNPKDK

[13] = system: Streptococcus sp. 'group A'; assay: growth inhibition of control SK(-) GAS strain, dose response, counter-screen for streptokinase expression inhibitor project, luminescence, kanamycin, BacTiterGlo, confirmation (AID 1900); type: functional, organism-based
[14] = molecular target: Glucose-6-phosphate 1-dehydrogenase (Homo sapiens, UniProt P11413); assay: human G6PD enzyme inhibitors, dose response, selectivity assay for P. falciparum G6PD inhibitor project, biochemical, fluorescence (AID 504792); type: functional
Glucose-6-phosphate 1-dehydrogenase, sequence (P11413 whole entry): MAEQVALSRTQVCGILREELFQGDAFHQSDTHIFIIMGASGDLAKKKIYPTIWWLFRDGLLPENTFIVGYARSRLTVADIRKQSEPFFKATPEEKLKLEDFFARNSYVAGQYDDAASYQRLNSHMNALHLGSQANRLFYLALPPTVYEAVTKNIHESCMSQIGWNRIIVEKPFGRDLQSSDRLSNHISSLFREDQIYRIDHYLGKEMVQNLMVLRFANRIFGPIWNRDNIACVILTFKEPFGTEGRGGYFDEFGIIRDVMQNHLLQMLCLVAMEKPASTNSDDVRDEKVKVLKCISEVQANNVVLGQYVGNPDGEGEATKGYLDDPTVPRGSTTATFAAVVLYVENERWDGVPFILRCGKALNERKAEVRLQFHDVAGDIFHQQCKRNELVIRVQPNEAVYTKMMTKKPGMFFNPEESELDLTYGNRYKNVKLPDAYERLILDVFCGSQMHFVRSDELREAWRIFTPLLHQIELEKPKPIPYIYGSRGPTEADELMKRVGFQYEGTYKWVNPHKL

[15] = molecular target: FAD-linked sulfhydryl oxidase ALR (Homo sapiens, UniProt P55789); assay: inhibitors of human ALR sulfhydryl oxidase, dose response, biochemical, H2O2 detection, luminescence, cherry-pick (AID 493248)
FAD-linked sulfhydryl oxidase ALR, sequence (P55789 whole entry): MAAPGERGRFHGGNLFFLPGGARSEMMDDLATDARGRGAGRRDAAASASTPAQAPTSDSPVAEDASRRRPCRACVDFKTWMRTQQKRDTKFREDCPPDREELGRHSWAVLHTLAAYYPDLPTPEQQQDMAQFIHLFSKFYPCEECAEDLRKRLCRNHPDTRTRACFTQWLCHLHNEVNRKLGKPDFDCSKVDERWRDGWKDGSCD

[16] = molecular target: T3, Heat shock factor protein 1 (Mus musculus, UniProt P38532); assay: inhibition of MG132-induced HSE-luciferase signal, confirmation, cell-based, NIH3T3, luminescence, dose retest (AID 2382); type: functional;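 also: NIH3T3 fibroblasts with HSF1-driven luciferase reporter stressed by proteasome inhibitor MG132; luminescence from HSF1-driven luciferase expression after 8 hours of MG132 stress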
T3 sequence (P38532 whole entry): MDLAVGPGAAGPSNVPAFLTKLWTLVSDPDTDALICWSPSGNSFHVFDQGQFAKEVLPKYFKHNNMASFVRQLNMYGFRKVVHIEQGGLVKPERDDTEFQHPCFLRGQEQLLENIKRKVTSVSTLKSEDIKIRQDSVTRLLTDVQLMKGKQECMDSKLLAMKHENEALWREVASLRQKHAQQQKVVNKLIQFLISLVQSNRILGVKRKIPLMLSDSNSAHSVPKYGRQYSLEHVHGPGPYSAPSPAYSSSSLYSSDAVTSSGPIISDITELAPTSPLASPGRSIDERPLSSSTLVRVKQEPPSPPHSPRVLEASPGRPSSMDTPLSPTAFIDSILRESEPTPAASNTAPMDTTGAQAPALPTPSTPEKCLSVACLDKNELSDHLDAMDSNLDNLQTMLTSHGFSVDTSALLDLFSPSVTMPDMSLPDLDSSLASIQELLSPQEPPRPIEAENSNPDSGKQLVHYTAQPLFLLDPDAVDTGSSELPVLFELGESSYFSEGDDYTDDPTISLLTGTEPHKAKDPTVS

SMILES: CCN(CC)CCNCc1ccc(-c2ccc(Cl)cc2)o1
- AC50 [1]: 20.9 µM (active)
- AC50 [2]: 8.94 µM (active)

SMILES: NC(=NOC(=O)c1ccccc1Cl)c1ncc([N+](=O)[O-])s1
- IC50 [3]: 3.81 µM (active)
- CC50 [4]: > 20 µM (active)
- IC50 [5]: > 119 µM (inactive)
- IC50 [6]: > 119 µM (inactive)
- CC50 [7]: 34.4 µM (active)

SMILES: CCCC(=O)NC(c1ccco1)c1cc(Cl)c2cccnc2c1O (configuration not stated)
- EC50 [8]: 5.04 µM (active)
- EC50 [9]: 32 µM (active)
- EC50 [10]: 3.44 µM (active)
- IC50 [5]: > 119 µM (inactive)
- AC50 [11]: 4.25 µM (active)
- EC50 [12]: > 150 µM (not active)
- IC50 [6]: > 119 µM (inactive)
- EC50 [13]: 1.18 µM (active)

SMILES: COc1ccc(CCNC(=O)c2cc(-c3ccc(Cl)c(Cl)c3)oc2C)cc1
- EC50 [9]: 22.4 µM (active)
- AC50 [1]: 48.4 µM (active)
- EC50 [12]: 6.21 µM (inconclusive)
- AC50 [2]: 3.04 µM (active)
- EC50 [13]: 7.72 µM (active)

SMILES: Oc1ccc(C23CC4CC(CC(C4)C2)C3)cc1O
- IC50 [14]: > 80 µM (inactive)
- AC50 [15]: 4.17 µM (active)

SMILES: COc1ccc2nc(NC(=O)CCNC(=O)c3ccco3)sc2c1
- IC50 [5]: > 119 µM (inactive)
- IC50 [6]: > 119 µM (inactive)

SMILES: CC(C)(C)c1ccc2c(c1)OC(C(=O)N/N=C\c1ccc[nH]1)CO2 (configuration not stated)
- EC50 [16]: 0.436 µM (active)
- AC50 [1]: 23 µM (active)
- AC50 [2]: 1.94 µM (active)
